Measured values from patent US20180055856A1, “COMBINATION OF LOW DOSE 2-METHYLENE-19-NOR-(20S)-1ALPHA, 25-DIHYDROXYVITAMIN D3 AND CALCIMIMETICS TO TREAT SECONDARY HYPERPARATHYROIDISM” (Wisconsin Alumni Research Foundation, priority 2016, published 2018).
Each block holds one compound with its values, some of them ahead of it.

Assays:
[1] = test system: vitamin D-deficient rats; test: Serum calcium in vitamin D-deficient hyperparathyroid rats, dosing thrice weekly for nearly four weeks; type: in vivo, Sprague-Dawley rats
Method: Oral Formulations. Cinacalcet was weighed and mixed with ethanol (at least 21 mcL ethanol/mg cinacalcet) for approximately 10 minutes. After a clear solution was produced, the clear solution was mixed with an ethanolic solution of 2MD or vitamin D analog as a control. The two ethanolic solutions were mixed (approx. 15 min.) with Neobee oil so that there was no more than 14.1% of ethanol in the final dosing solution. Doses were delivered in a 0.75 mL/kg dose volume.
Intravenous Formulations. Etelcalcitide was weighed and mixed with propylene glycol (up to 5 mg etelcalcitide/ml propylene glycol) for approximately 1 minute. After a clear solution was produced ([…]), the clear solution was mixed with an ethanolic solution of 2MD or vitamin D analog as a control (no more than ˜0.6% ethanol in the final solution) for approximately 1 min. Doses were delivered in a 1 mL/kg dose volume.
Sprague-Dawley rats were made vitamin D-deficient and then placed on a high containing lactose (10%) and elevated levels of calcium (2%) and phosphorus (1.25%). After hyperparathyroidism was established in the rats, animals were administered cinacalcet or etelcalcitide, 2MD or the combination of the two thrice weekly for nearly four weeks. Blood was collected 48-72 hours after the last dose was given and PTH (Immutopics Intact PTH kit) and serum calcium (Perkin Elmer) measured. […]

[2] = test system: MRL/MpJ-FAS^1pr (MRL/lpr) mouse model of systemic lupus erythematosus; settings: calcitriol administered through the diet; cited from earlier work

serum calcium, 2MD alone ([1]; 1 ng 2MD/kg bw): unaffected
SMILES: C=C1[C@H](O)CC(=C/C=C2\CCC[C@@]3(C)C2CCC3[C@@H](C)CCCC(C)(C)O)C[C@H]1O (stereo partly drawn) [2MD, 2-methylene-19-nor-(20S)-1α,25-dihydroxyvitamin D3]

SMILES: C=C1/C(=C\C=C2/CCC[C@]3(C)[C@@H]([C@H](C)CCCC(C)(C)O)CC[C@@H]23)C[C@@H](O)C[C@@H]1O [calcitriol, 1α,25-(OH)2D3]
hypercalcemia accompanying treatment [2]: severe hypercalcemia always accompanied this treatment
proteinuria [2]: completely prevents proteinuria

decrease of serum calcium, cinacalcet alone ([1]; cinacalcet alone): 0.5 mg%
SMILES: C[C@@H](NCCCc1cccc(C(F)(F)F)c1)c1cccc2ccccc12 [cinacalcet, (R)—N-[1-(1-naphthyl)ethyl]-3-[3-(trifluoromethyl)phenyl] propan-1-amine]
